Laboratory results published in patent US20240336658A1, “CYCLIC PEPTIDE AND PREPARATION METHOD AND USE THEREOF” (HANGZHOU HUIBO SCIENCE AND TECHNOLOGY CO., LTD, priority 2021, published 2024).

Legend:
fibroblasts (NIH/3T3) = assay: Scratching experiment, Hst1 cyclic peptides (Examples 11 and 12); format: cell-based; conditions: dosage needed to achieve the same pharmaceutical effect in the scratch experiment
Protocol: At the same time, fibroblasts (NIH/3T3; GNM 6; Chinese Academy of Sciences, China) were plated into a 6-well plate at a number of 2×10^6/well and cultured to a density of 70-80%. The cells were starved for 8-12 hours before the experiment. Mitomycin C (Sigma Aldrich, USA) was added into the culture medium to make its concentration in the culture medium be 15 μg/ml, and the culture medium was changed after 3 hours of treatment. Scratching was conducted with a 200 μl pipette tip perpendicular to the bottom of the well-plate with the same force, and the well-plate was rinsed with PBS twice after scratching. Each well was added with an appropriate amount of a DEME medium (10% FBS, 1% double antibody), and except for the blank control group, each well was added with 10 μM of the linear Hst1, 0.01 μM of the propynylglycine-Hst1 cyclic peptide, 0.1 μM of the propynylglycine-Hst1 cyclic peptide and 1 μM of the propynylglycine-Hst1 cyclic peptide as experimental groups. At 0 hour, the cells in each group were photographed by using a microscope (Olympus, Japan). […] The scratched area of each group was calculated by using imageJ (Rawak Software, Inc. Germany) software, and the scratch area at 0 hour was an initial scratch area. The scratch healing rate was calculated as follows: […]

[1] = test system: full-thickness skin defect wound surfaces; assay: Effects of cyclic peptide Hst1 on wound repair in mice (Example 10): healing rate, HE/Masson histology, CD31/VEGF immunohistochemistry; format: in vivo, C57 BL/6 mice
Protocol: This example adopted the propargylglycine-Hst1 cyclic peptide (Click-Histatin1) provided in Example 1, a cyclized Hst1 (Sortase A-cyclic histatin1) prepared by the Sortase A enzymatic method provided in Example 4, and a linear peptide Hst1 (Histatin1) to conduct animal experiments to observe the effect of the propargylglycine-Hst1 on the healing rates of the wound surfaces of mice. The concentration of the linear peptide Hst1 was 10 μM, the concentration of the propargylglycine-Hst1 cyclic peptide was 0.1 μM, and the concentration of the cyclized Hst1 prepared by the Sortase A enzymatic method was each 0.1 μM. 12 healthy male special pathogen-free grade C57 BL/6 mice (purchased from Guangdong Experimental Animal Center) of 6-8 weeks old and weighing 22-28 g. They were intraperitoneally injected with 5 ml/kg of 1% pentobarbital sodium for anesthesia. After the mice had no corneal reflex, the hair on their backs was carefully removed and disinfected with alcohol. […] full-thickness skin defect wound surfaces were prepared on the back of each mouse by using a circular skin punch. The 12 mice were divided into a Control (blank) group with 3 mice, a 10 μM linear peptide Hst1 (Histatin1) group with 3 mice, a 0.1 μM propynylglycine-Hst1 cyclic peptide (Click-Histatin1) group with 3 mice, and a 0.1 μM cyclized Hst1 prepared by a Sortase A enzymatic method (Sortase A-cyclic histatin1) group with 3 mice, according to a random number table method. Each wound surface was added with 0.5 ml of four drugs respectively, and administration was conducted every day until the wound surfaces of the experimental groups healed. Photographs were taken on days 0, 3, 5, 7, and 10 after surgery, and wound tissues were sampled on day 10 for subsequent pathological staining. On days 0, 3, 5, 7, and 10 after injury, the general condition of wound healing of the mice was observed and photographed with a digital camera (see FIG. 4), and the wound healing rate was calculated (see FIG. 5). Wound healing rate=(wound area immediately after injury−unhealed wound area at each time point)[…]wound area immediately after injury×100%. The wound specimens were fixed in 4% paraformaldehyde for 48 hours, rinsed with tap water for 10 minutes, dehydrated with graded ethanol, permeabilized with xylene, and embedded in paraffin to prepare 4 μm thick sections. Some sections were taken for HE staining and Masson staining, and observed for the thickness of the granulation tissue, the length of the dermal gap, and the newly grown collagen of the wound surface under an inverted fluorescence microscope at 40×, 100×, 200×, and 400× respectively (see FIGS. 6 and 7). 5 sections were taken from each mouse, and 5 fields of view were selected for each section. Data analysis was performed using the software Image-pro Plus. […] It was added with a rabbit anti-mouse CD31 primary antibody (with a dilution ratio of 1:300) and a mouse anti-VEGF (with a dilution ratio of 1:100), incubated overnight at 4° C., and washed with PBS. […] It was subjected to DAB development, hematoxylin counterstaining. gradient ethanol dehydration, xylene permeabilization, and resin blocking. 5 sections were taken from each mouse, and 5 fields of view were selected for each section. The sections were observed under a 400× inverted fluorescence microscope, and analyzed for the number of CD31-positive blood vessels (see FIG. 8) and VEGF expression amounts (see FIG. 9, shown in brown) by using Image-pro Plus software. The measurement data were expressed by M±SD, and the data were analyzed by one-way analysis of variance (ANOVA) and an independent samples T-test with SPSS 20.0 software to detect whether the differences among the groups were statistically significant, and a Bonferroni test was used for pairwise comparison. *p<0.05. **p<0.01. ***p<0.001 meant the difference was statistically significant, and p>0.05 was not statistically significant.

[2] = day 10, immunohistochemistry, 0.1 μM Click-Histatin1, 10 μM Histatin1

Substance: Linear Hst1: linear peptide Hst1 (Histatin1), amino acid sequence SEQ ID NO.1
- Dosage of agents required for scratch test (fibroblasts (NIH/3T3)): 10 µM
- healing rate of the wound surface ([1]; day 7, 10 μM Histatin1 vs 0.1 μM Click-Histatin1): no significant difference
- dermal gap length at both ends of the wound surface ([1]; day 10, HE staining, 0.1 μM Click-Histatin1, 0.1 μM Sortase A-cyclic histatin1, 10 μM Histatin1): longest dermal gap length
- expression amount of collagen at the wound surfaces ([1]; day 10, Masson staining, 0.1 μM Click-Histatin1, 0.1 μM Sortase A-cyclic histatin1, 10 μM Histatin1): significantly higher than that of the Control group
- VEGF expression amount [1, 2]: higher than that in the Control group
- number of CD31-positive blood vessels under each field of view [1, 2]: significantly higher than that in the Control group
